Data published in patent US20230089867A1, “CYCLIC PENTAMER COMPOUNDS AS PROPROTEIN CONVERTASE SUBTILISIN/KEXIN TYPE 9 (PCSK9) INHIBITORS FOR THE TREATMENT OF METABOLIC DISORDER” (Novartis AG, priority 2018, published 2023).

Molecular target: human PCSK9 (Homo sapiens, UniProt Q8NBP7)
Assay: PCSK9 ligand binding TR-FRET assay (interference with binding of human PCSK9 to human LDLR)
Conditions: for Max % inhibition: PCSK9 FRET assay, efficacy (Amax), 100% = 1 uM unlabeled human PCSK9, 0% = DMSO; for IC50: TR-FRET, human PCSK9 Alexa Fluor 647 / human LDLR extracellular domain-Europium Kryptate, read-out: PCSK9 FRET Assay IC50
Method in brief: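 Threefold compound dilutions were pre-incubated 30 min with PCSK9, after which 4 nM Europium Kryptate-tagged human LDLR ectodomain was added for a further 2 h.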

Chain of human PCSK9 (Q8NBP7 153-692): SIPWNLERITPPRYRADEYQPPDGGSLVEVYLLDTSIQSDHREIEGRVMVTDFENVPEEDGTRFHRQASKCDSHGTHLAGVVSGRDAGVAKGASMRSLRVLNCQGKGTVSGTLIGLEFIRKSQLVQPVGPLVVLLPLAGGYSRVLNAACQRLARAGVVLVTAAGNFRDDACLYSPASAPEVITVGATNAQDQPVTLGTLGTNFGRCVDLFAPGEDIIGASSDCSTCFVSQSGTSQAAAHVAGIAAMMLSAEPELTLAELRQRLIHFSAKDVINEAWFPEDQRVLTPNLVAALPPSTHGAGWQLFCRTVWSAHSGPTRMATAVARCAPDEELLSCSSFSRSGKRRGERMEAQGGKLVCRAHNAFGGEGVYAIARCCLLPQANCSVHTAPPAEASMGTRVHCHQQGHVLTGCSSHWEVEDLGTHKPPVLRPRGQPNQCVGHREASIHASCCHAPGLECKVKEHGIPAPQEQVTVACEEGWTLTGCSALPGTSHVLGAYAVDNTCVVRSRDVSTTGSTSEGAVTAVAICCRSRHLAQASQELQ
Chain of human PCSK9 (Q8NBP7 31-152 partner limits assumed): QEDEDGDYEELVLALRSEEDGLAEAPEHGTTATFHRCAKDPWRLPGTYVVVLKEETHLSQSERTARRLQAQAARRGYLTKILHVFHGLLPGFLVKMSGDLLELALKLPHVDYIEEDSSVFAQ

| Max % inhibition [%] | IC50 [nM] | SMILES |
| --- | --- | --- |
| 97.38 | 0.9 | C[C@H]1C(=O)N[C@@H](CO)C(=O)N(C)[C@@H](Cc2ccc(Cl)cc2)CC(=O)N[C@H]2CCCC[C@@H]2N(C)C(=O)[C@H](Cc2ccccc2)CC(=O)N1Cc1ccc(Cl)cc1Oc1ccc(-c2cnc(CN(C)C)n2C)cc1 [Compound 243, (4S,7S,10S,14R,16aS,20aS)-14-benzyl-11-(4-chloro-2-(4-(2-((dimethylamino)methyl)-1-methyl-1H-imidazol-5-yl)phenoxy)benzyl)-4-(4-chlorobenzyl)-7-(hydroxymethyl)-5,10,16-trimethylhexadecahydrobenzo[l][1,4,7,11,14]pentaazacyclooctadecine-2,6,9,12,15(3H)-pentaone] |
| 80.79 | 22.9 | CCNC(=O)c1ncn(-c2ccc(Oc3cc(Cl)ccc3CN3C(=O)C[C@@H](Cc4ccccc4)C(=O)N(C)[C@@H](C)CNC(=O)C[C@H](Cc4ccc(Cl)cc4)N(C)C(=O)[C@H](COC)NC(=O)[C@@H]3C)cc2)c1C [Compound 244, 1-(4-(2-(((2S,5S,8S,13S,16R)-16-benzyl-8-(4-chlorobenzyl)-5-(methoxymethyl)-2,7,13,14-tetramethyl-3,6,10,15,18-pentaoxo-1,4,7,11,14-pentaazacyclooctadecan-1-yl)methyl)-5-chlorophenoxy)phenyl)-N-ethyl-5-methyl-1H-imidazole-4-carboxamide] |
| 104.03 | 1.3 | COC[C@@H]1NC(=O)[C@H](CCC(=O)O)N(Cc2ccc(Cl)cc2Oc2ccc(-c3cnc(CN(C)C)n3C)cc2)C(=O)C[C@@H](Cc2ccccc2)C(=O)N(C)[C@H]2CCCC[C@@H]2NC(=O)C[C@H](Cc2ccc(Cl)cc2)N(C)C1=O [Compound 245, 3-((4S,7S,10S,14R,16aS,20aS)-14-benzyl-11-(4-chloro-2-(4-(2-((dimethylamino)methyl)-1-methyl-1H-imidazol-5-yl)phenoxy)benzyl)-4-(4-chlorobenzyl)-7-(methoxymethyl)-5,16-dimethyl-2,6,9,12,15-pentaoxodocosahydrobenzo[l][1,4,7,11,14]pentaazacyclooctadecin-10-yl)propanoic acid] |
| 103.97 | 2.4 | COC[C@@H]1NC(=O)[C@H](C)N(Cc2ccc(Cl)cc2Oc2ccc(-c3cnc(CN(C)C)n3C)cc2)C(=O)C[C@@H](Cc2c(F)c(F)cc(F)c2F)C(=O)N(C)[C@@H](C)CNC(=O)C[C@H](Cc2ccc(Cl)cc2)N(C)C1=O [Compound 246, (2S,5S,8S,13S,16R)-1-(4-chloro-2-(4-(2-((dimethylamino)methyl)-1-methyl-1H-imidazol-5-yl)phenoxy)benzyl)-8-(4-chlorobenzyl)-5-(methoxymethyl)-2,7,13,14-tetramethyl-16-(2,3,5,6-tetrafluorobenzyl)-1,4,7,11,14-pentaazacyclooctadecane-3,6,10,15,18-pentaone] |
| 98.86 | 33.2 | COC[C@@H]1NC(=O)[C@H](C)N(Cc2ccc(Cl)cc2Oc2ccc(-c3cnc(CN(C)C)n3C)cc2)C(=O)C[C@@H](Cc2ccccc2)C(=O)N(C)[C@H]2C[C@H]2NC(=O)C[C@H](Cc2ccc(Cl)cc2)N(C)C1=O [Compound 247, (1R,5S,8S,11S,15R,18S)-15-benzyl-12-(4-chloro-2-(4-(2-((dimethylamino)methyl)-1-methyl-1H-imidazol-5-yl)phenoxy)benzyl)-5-(4-chlorobenzyl)-8-(methoxymethyl)-6,11,17-trimethyI-2,6,9,12,17-pentaazabicyclo[16.1.0]nonadecane-3,7,10,13,16-pentaone] |
| 106.74 | 2.2 | CC[C@H]1C(=O)N[C@@H](COC)C(=O)N(C)[C@@H](Cc2ccc(Cl)cc2F)CC(=O)NC[C@H](C)N(C)C(=O)[C@H](Cc2ccccc2)CC(=O)N1Cc1ccc(Cl)cc1Oc1ccc(-c2cnc(CN(C)C)n2C)cc1 [Compound 248, (2S,5S,8S,13S,16R)-16-benzyl-1-(4-chloro-2-(4-(2-((dimethylamino)methyl)-1-methyl-1H-imidazol-5-yl)phenoxy)benzyl)-8-(4-chloro-2-fluorobenzyl)-2-ethyl-5-(methoxymethyl)-7,13,14-trimethyl-1,4,7,11,14-pentaazacyclooctadecane-3,6,10,15,18-pentaone] |
| 98.36 | 2.3 | COC[C@@H]1NC(=O)[C@H](C)N(Cc2ccc(Cl)cc2Oc2ccc(-c3cnc4n3CC[N+]3(CCCC3)C4)cc2)C(=O)C[C@@H](Cc2ccccc2)C(=O)N(C)[C@@H](C)CNC(=O)C[C@H](Cc2ccc(Cl)cc2)N(C)C1=O.Cl.[Cl-] [Compound 249, 3-(4-(2-(((2S,5S,8S,13S,16R)-16-benzyl-8-(4-chlorobenzyl)-5-(methoxymethyl)-2,7,13,14-tetramethyl-3,6,10,15,18-pentaoxo-1,4,7,11,14-pentaazacyclooctadecan-1-yl)methyl)-5-chlorophenoxy)phenyl)-5,6-dihydro-8H-spiro[imidazo[1,2-a]pyrazine-7,1′-pyrrolidin]-7-ium chloride hydrochloride] |
| 84.24 | 0.4 | COC[C@@H]1NC(=O)[C@H](CCN(C)C)N(Cc2ccc(Cl)cc2Oc2ccc(-c3cnc(CN(C)C)n3C)cc2)C(=O)C[C@@H](Cc2ccccn2)C(=O)N(C)[C@H]2CCCC[C@@H]2NC(=O)C[C@H](Cc2ccc(Cl)cc2)N(C)C1=O [Compound 250, (4S,7S,10S,14R,16aS,20aS)-11-(4-chloro-2-(4-(2-((dimethylamino)methyl)-1-methyl-1H-imidazol-5-yl)phenoxy)benzyl)-4-(4-chlorobenzyl)-10-(2-(dimethylamino)ethyl)-7-(methoxymethyl)-5,16-dimethyl-14-(pyridin-2-ylmethyl)hexadecahydrobenzo[l][1,4,7,11,14]pentaazacyclooctadecine-2,6,9,12,15(3H)-pentaone] |
| 99.24 | 0.8 | COC[C@@H]1NC(=O)[C@H](CCCN2CCCC2)N(Cc2ccc(Cl)cc2Oc2ccc(-c3cnc(CN(C)C)n3C)cc2)C(=O)C[C@@H](Cc2ccccc2)C(=O)N(C)[C@H]2CCCC[C@@H]2NC(=O)C[C@H](Cc2ccc(Cl)cc2)N(C)C1=O [Compound 251, (4S,7S,10S,14R,16aS,20aS)-14-benzyl-11-(4-chloro-2-(4-(2-((dimethylamino)methyl)-1-methyl-1H-imidazol-5-yl)phenoxy)benzyl)-4-(4-chlorobenzyl)-7-(methoxymethyl)-5,16-dimethyl-10-(3-(pyrrolidin-1-yl)propyl)hexadecahydrobenzo[l][1,4,7,11,14]pentaazacyclooctadecine-2,6,9,12,15(3H)-pentaone] |
| 92.00 | 2.1 | COC[C@@H]1NC(=O)[C@H](CCCN2CCOCC2)N(Cc2ccc(Cl)cc2Oc2ccc(-c3cnc(CN4CCCC4)n3C)cc2)C(=O)C[C@@H](Cc2ccccc2)C(=O)N(C)[C@H]2CCCC[C@@H]2NC(=O)C[C@H](Cc2ccc(Cl)cc2)N(C)C1=O [Compound 252, (4S,7S,10S,14R,16aS,20aS)-14-benzyl-11-(4-chloro-2-(4-(1-methyl-2-(pyrrolidin-1-ylmethyl)-1H-imidazol-5-yl)phenoxy)benzyl)-4-(4-chlorobenzyl)-7-(methoxymethyl)-5,16-dimethyl-10-(3-morpholinopropyl)hexadecahydrobenzo[l][1,4,7,11,14]pentaazacyclooctadecine-2,6,9,12,15(3H)-pentaone] |
| 98.40 | 1.5 | COC[C@@H]1NC(=O)[C@H](C)N(Cc2ccc(Cl)cc2Oc2ccc(-c3cnc(CN(C)C)n3C)cc2)C(=O)C[C@@H](Cn2cccn2)C(=O)N(C)[C@H]2CCCC[C@@H]2NC(=O)C[C@H](Cc2ccc(Cl)cc2)N(C)C1=O [Compound 253, (4S,7S,10S,16aS,20aS)-14-((1H-pyrazol-1-yl)methyl)-11-(4-chloro-2-(4-(2-((dimethylamino)methyl)-1-methyl-1H-imidazol-5-yl)phenoxy)benzyl)-4-(4-chlorobenzyl)-7-(methoxymethyl)-5,10,16-trimethylhexadecahydrobenzo[l][1,4,7,11,14]pentaazacyclooctadecine-2,6,9,12,15(3H)-pentaone] |
| 102.70 | 3 | COC[C@@H]1NC(=O)[C@H](CCCN2CC(F)(F)C(F)(F)C2)N(Cc2ccc(Cl)cc2Oc2ccc(-c3cnc(CN(C)C)n3C)cc2)C(=O)C[C@@H](Cc2ccccc2)C(=O)N(C)[C@H]2CCCC[C@@H]2NC(=O)C[C@H](Cc2ccc(Cl)cc2)N(C)C1=O [Compound 254, (4S,7S,10S,14R,16aS,20aS)-14-benzyl-11-(4-chloro-2-(4-(2-((dimethylamino)methyl)-1-methyl-1H-imidazol-5-yl)phenoxy)benzyl)-4-(4-chlorobenzyl)-7-(methoxy-methyl)-5,16-dimethyl-10-(3-(3,3,4,4-tetrafluoropyrrolidin-1-yl)propyl)hexadecahydro-benzo[l][1,4,7,11,14]pentaazacyclooctadecine-2,6,9,12,15(3H)-pentaone] |
| 64.95 | 19.7 | COC[C@@H]1NC(=O)[C@H](C)N(Cc2ccc(Cl)cc2Oc2ccc(-c3cnc(CN(C)C)n3C)cc2)C(=O)C[C@@H](C)C(=O)N(C)[C@@H](CC(C)C)CNC(=O)C[C@H](Cc2ccc(Cl)cc2)N(C)C1=O [Compound 255, (5S,8S,13S,16R)-1-(4-chloro-2-(4-(2-((dimethylamino)methyl)-1-methyl-1H-imidazol-5-yl)phenoxy)benzyl)-8-(4-chlorobenzyl)-13-isobutyl-5-(methoxymethyl)-2,7,14,16-tetramethyl-1,4,7,11,14-pentaazacyclooctadecane-3,6,10,15,18-pentaone] |
| 79.36 | 52.4 | COC[C@@H]1NC(=O)[C@H](C)N(Cc2ccc(Cl)cc2Oc2ccc(-c3cnc(CN4CCCC4)n3C)cc2)C(=O)C[C@@H](Cc2ccccc2)C(=O)N(C)[C@@H](C)CNC(=O)C[C@H](Cc2ccc(Cl)cc2)NC1=O [Compound 256, (2S,5S,8S,13S,16R)-16-benzyl-1-(4-chloro-2-(4-(1-methyl-2-(pyrrolidin-1-ylmethyl)-1H-imidazol-5-yl)phenoxy)benzyl)-8-(4-chlorobenzyl)-5-(methoxymethyl)-2,13,14-trimethyl-1,4,7,11,14-pentaazacyclooctadecane-3,6,10,15,18-pentaone] |
